Data taken from ChEMBL document CHEMBL1155593, “Bioactive sesquiterpenes from the basidiomycete Resupinatus leightonii” (J Nat Prod, 2000).
Values after ≈ are worked out from the molar mass of the structure shown. Active and inactive are the calls of the source. The calls are words filed in the database; no cut-off is given here.

Experiments:
[1] = Cytotoxicity against mouse B16-F1cells; assay type: functional, cell-based; settings: B16-F1
HL-60 = assay: Cytotoxicity against human HL60 cells; assay type: functional, cell-based
Jurkat = assay: Cytotoxicity against human Jurkat cells; assay type: functional, cell-based
Pyricularia grisea [2] = assay: Inhibition of hydrophobic gel bonded surface-induced appressorium formation in germinating conidia of Magnaporthe grisea P1; assay type: functional, organism-based
HeLa = assay: Cytotoxicity against human HeLa S3 cells; assay type: functional, cell-based
Pyricularia grisea [3] = assay: Inhibition of 1,16-hexadecanediol-induced appressorium formation in germinating conidia of Magnaporthe grisea P1; assay type: functional, organism-based
Pyricularia grisea [4] = assay: Inhibition of chlorophenylthio-cAMP-induced appressorium formation in germinating conidia of Magnaporthe grisea P1; assay type: functional, organism-based

SMILES | IC50 [1] | IC50 (HL-60) | IC50 (Jurkat) | Activity (Pyricularia grisea [2]) | IC50 (HeLa) | Activity (Pyricularia grisea [3]) | IC50 (Pyricularia grisea [4])
C/C1=C\[C@@H](O)C/C(C)=C/[C@H](O)[C@H]([C@@H](C)CO)CC1 | > 100 µg/mL | 10 µg/mL (≈ 39.3 µM) | 20 µg/mL (≈ 78.6 µM) | inactive | > 100 µg/mL | inactive | 50 µg/mL (≈ 197 µM)
C=C[C@@](C)(O)CC/C=C(\C)CC[C@H](O)C(C)(C)O | 75 µg/mL (≈ 293 µM) | 5 µg/mL (≈ 19.5 µM) | 20 µg/mL (≈ 78 µM) | inactive | 75 µg/mL (≈ 293 µM) | inactive | 10 µg/mL (≈ 39 µM)
